Like-named read-outs stand apart in the source and are kept apart here.
Columns and labels:
human RORγ = biological target: T1, human RORγ (Homo sapiens, UniProt P51449); assay: Luciferase reporter gene assay of inhibitory effect against RORγ transcriptional activity (GAL4-hRORγ plasmid in CHO cells); assay type: cell-based
T1 construct: human, NM_005060.3 and from Ser253 to Lys518; expressed in transfected cells; host or cells: CHO cells (transient co-transfection with pG5-Luc reporter)
T1 sequence (P51449 253-518): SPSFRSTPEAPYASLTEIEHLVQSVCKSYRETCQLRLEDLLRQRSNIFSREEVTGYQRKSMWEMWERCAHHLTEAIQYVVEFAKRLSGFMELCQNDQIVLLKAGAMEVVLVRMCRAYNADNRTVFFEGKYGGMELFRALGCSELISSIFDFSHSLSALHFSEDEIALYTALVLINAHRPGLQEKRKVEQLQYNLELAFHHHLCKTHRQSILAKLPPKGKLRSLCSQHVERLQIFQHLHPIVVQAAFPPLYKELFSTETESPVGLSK

mouse RORγ = biological target: T2, mouse RORγ (Mus musculus, UniProt P51450); assay: Luciferase reporter gene assay of inhibitory effect against RORγ transcriptional activity (GAL4-mRORγ plasmid in CHO cells); assay type: cell-based
T2 construct: mouse, NM_011281.2 and from Ile251 to Lys516; expressed in transfected cells; host or cells: CHO cells (transient co-transfection with pG5-Luc reporter)
T2 sequence (P51450 251-516): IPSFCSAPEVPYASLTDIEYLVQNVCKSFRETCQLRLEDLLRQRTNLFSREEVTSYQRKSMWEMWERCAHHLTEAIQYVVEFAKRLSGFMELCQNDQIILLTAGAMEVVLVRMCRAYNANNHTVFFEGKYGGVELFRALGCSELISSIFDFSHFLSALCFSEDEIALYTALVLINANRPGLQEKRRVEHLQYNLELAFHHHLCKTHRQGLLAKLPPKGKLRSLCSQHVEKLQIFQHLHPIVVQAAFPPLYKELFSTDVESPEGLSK
Outline: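 CHO cells transiently co-transfected with GAL4-mouse RORγ LBD (Ile251–Lys516) and GAL4-dependent luciferase reporter; eight compound concentrations, 0.1% DMSO, 2 days at 37 °C. Luminescence as %-of-vehicle control; EC50 by curve fit, cytotoxic concentrations excluded.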

SMILES: Cc1c(Cl)cccc1NC(=O)CCc1nnc(CCn2cccn2)n1C1CC1 [Example F-172]
- EC50 (human RORγ; read-out: LUC EC50 (μM) hRORg): > 3 µM
- EC50 (mouse RORγ; read-out: LUC EC50 (μM) mRORg): > 3 µM

SMILES: CC(=O)N1C[C@H](C(=O)Nc2cc(C)ccc2C)[C@@H](c2nnc(CCCC(C)(C)C)n2C2CC2)C1 (racemic) [Example F-331]
- EC50 (human RORγ; read-out: LUC EC50 (μM) hRORg): < 3 µM
- EC50 (mouse RORγ; read-out: LUC EC50 (μM) mRORg): < 3 µM

SMILES: Cc1c(Cl)cccc1NC(=O)CCc1nnc(CCNC(C)C)n1C1CC1 [Example F-171]
- EC50 (human RORγ; read-out: LUC EC50 (μM) hRORg): > 3 µM
- EC50 (mouse RORγ; read-out: LUC EC50 (μM) mRORg): > 3 µM

SMILES: CC(=O)N1C[C@@H](C(=O)Nc2ccc(C)cc2C)[C@H](c2nnc(CCCC(C)(C)C)n2C2CC2)C1 [Example F-339]
- EC50 (human RORγ; read-out: LUC EC50 (μM) hRORg): > 3 µM
- EC50 (mouse RORγ; read-out: LUC EC50 (μM) mRORg): > 3 µM

SMILES: CCOC(=O)CCc1c(CCC(=O)Nc2ccc(C)cc2C)noc1[C@H]1C[C@@H](CC(C)C)C1 [Example F-663]
- EC50 (human RORγ; read-out: LUC EC50 hRORg): > 3 µM
- EC50 (mouse RORγ; read-out: LUC EC50 mRORg): > 3 µM

SMILES: Cc1ccc(NC(=O)CC(CC(=O)O)c2nnc([C@H]3C[C@@H](CC(C)C)C3)n2C2CC2)c(C)c1 (mixture of isomers) [Example F-499]
- EC50 (human RORγ; read-out: LUC EC50 hRORg): > 3 µM
- EC50 (mouse RORγ; read-out: LUC EC50 mRORg): < 3 µM

SMILES: CC(C)(C)Cc1cc(-c2onc([C@@H](CCC(=O)O)CC(=O)Nc3ccc(F)cc3Cl)c2C2CC2)no1 [Example E-57]
- EC50 (human RORγ; read-out: LUC EC50 (μM) hRORg): < 3 µM
- EC50 (mouse RORγ; read-out: LUC EC50 (μM) mRORg): < 3 µM

SMILES: CC(C)(C)c1cc(-c2onc([C@@H](CCC(=O)O)CC(=O)Nc3ccc(Cl)cc3F)c2C2CC2)no1 [Example E-69]
- EC50 (human RORγ; read-out: LUC EC50 (μM) hRORg): < 3 µM
- EC50 (mouse RORγ; read-out: LUC EC50 (μM) mRORg): < 3 µM

SMILES: CC(C)C[C@H]1C[C@@H](c2nnc([C@@H](CCO)CC(=O)Nc3cccc4c3CCC4)n2C2CC2)C1 [Example F-543]
- EC50 (human RORγ; read-out: LUC EC50 hRORg): < 3 µM
- EC50 (mouse RORγ; read-out: LUC EC50 mRORg): < 3 µM

SMILES: Cc1ccc(NC(=O)C[C@H](CCC(=O)O)c2noc(-c3cc(C(F)(F)C4CCCC4)on3)c2C2CC2)c(Cl)c1 [Example E-39]
- EC50 (human RORγ; read-out: LUC EC50 (μM) hRORg): < 3 µM
- EC50 (mouse RORγ; read-out: LUC EC50 (μM) mRORg): < 3 µM

SMILES: Cc1c(Cl)cccc1NC(=O)CCc1nnc(COCc2ccccc2)n1C1CC1 [Example F-166]
- EC50 (human RORγ; read-out: LUC EC50 (μM) hRORg): > 3 µM
- EC50 (mouse RORγ; read-out: LUC EC50 (μM) mRORg): < 3 µM

SMILES: Cc1ccc(NC(=O)C[C@@H](c2nnc([C@H]3C[C@@H](CC(C)C)C3)n2C2CC2)N(C)C(=O)C(C)C)c(C)c1 [Example F-530]
- EC50 (human RORγ; read-out: LUC EC50 hRORg): < 3 µM
- EC50 (mouse RORγ; read-out: LUC EC50 mRORg): < 3 µM

SMILES: Cc1ccc(CNC(=O)CCc2nnc(CCC(C)C)n2C2CC2)c(C)c1 [Example F-119]
- EC50 (human RORγ; read-out: LUC EC50 (μM) hRORg): < 3 µM
- EC50 (mouse RORγ; read-out: LUC EC50 (μM) mRORg): < 3 µM

SMILES: CCn1c(C2Cc3ccccc3C2)nnc1[C@H](C)CC(=O)Nc1cccc2ccccc12 [Example F-2]
- EC50 (human RORγ; read-out: LUC EC50 (μM) hRORg): < 3 µM
- EC50 (mouse RORγ; read-out: LUC EC50 (μM) mRORg): < 3 µM

SMILES: CC(C)CCc1nnc(CCC(=O)N[C@@H](C)c2ccccc2)n1C1CC1 [Example F-62]
- EC50 (human RORγ; read-out: LUC EC50 (μM) hRORg): > 3 µM
- EC50 (mouse RORγ; read-out: LUC EC50 (μM) mRORg): > 3 µM

SMILES: CC(=O)N1C[C@H](C(=O)Nc2ccc(C)cc2C)[C@@H](c2nnc(CCCC(C)(C)C)n2CC(F)(F)F)C1 [Example F-392]
- EC50 (human RORγ; read-out: LUC EC50 (μM) hRORg): < 3 µM
- EC50 (mouse RORγ; read-out: LUC EC50 (μM) mRORg): < 3 µM

SMILES: Cc1ccc(NC(=O)C[C@H](CC(F)(F)F)c2nnc([C@H]3C[C@@H](CC(C)C)C3)n2C2CC2)c(C)c1 [Example F-568]
- EC50 (human RORγ; read-out: LUC EC50 hRORg): < 3 µM
- EC50 (mouse RORγ; read-out: LUC EC50 mRORg): < 3 µM

SMILES: Cc1ccc(CNC(=O)CCc2nnc(CCC(C)C)n2C2CC2)c(O)c1 [Example F-149]
- EC50 (human RORγ; read-out: LUC EC50 (μM) hRORg): > 3 µM
- EC50 (mouse RORγ; read-out: LUC EC50 (μM) mRORg): > 3 µM

SMILES: Cc1ccc(NC(=O)C[C@H](OCC(F)(F)F)c2nnc(-c3cc(CC(C)C)on3)n2C2CC2)c(C)c1 [Example F-629]
- EC50 (human RORγ; read-out: LUC EC50 hRORg): < 3 µM
- EC50 (mouse RORγ; read-out: LUC EC50 mRORg): < 3 µM

SMILES: CC(=O)N1C[C@H](C(=O)Nc2ccc(C)cc2C)[C@@H](c2nnc(CCC(C)(C)C(C)C)n2C2CC2)C1 (racemic) [Example F-321]
- EC50 (human RORγ; read-out: LUC EC50 (μM) hRORg): < 3 µM
- EC50 (mouse RORγ; read-out: LUC EC50 (μM) mRORg): < 3 µM

SMILES: Cc1cc(C#N)ccc1NC(=O)CCc1nnc(CCC(C)C)n1C1CC1 [Example F-161]
- EC50 (human RORγ; read-out: LUC EC50 (μM) hRORg): > 3 µM
- EC50 (mouse RORγ; read-out: LUC EC50 (μM) mRORg): > 3 µM

SMILES: Cc1ccc(NC(=O)C[C@H](CCO)c2nnc(-c3cc(CC(C)C)on3)n2C2CC2)c(C)c1 [Example F-457]
- EC50 (human RORγ; read-out: LUC EC50 (μM) hRORg): < 3 µM
- EC50 (mouse RORγ; read-out: LUC EC50 (μM) mRORg): > 3 µM

SMILES: Cc1c(O)cccc1CNC(=O)CCc1nnc(CCC(C)C)n1C1CC1 [Example F-133]
- EC50 (human RORγ; read-out: LUC EC50 (μM) hRORg): > 3 µM
- EC50 (mouse RORγ; read-out: LUC EC50 (μM) mRORg): > 3 µM

Reference: patent US20160137639A1, “TRIAZOLE-ISOXAZOLE COMPOUND AND MEDICAL USE THEREOF” (JAPAN TOBACCO INC., priority 2012, published 2016)
